Assay results from patent US20100305068A1, “COMPOUNDS AND METHODS FOR MODULATING PROTEIN TRAFFICKING” (priority 2006, published 2010).

System: pdr5 ypt1^ts cells
Test: microbe, parasite or virus in culture
Type: cell-based, yeast
Details: Saccharomyces cerevisiae; Table 2; lowest concentration tested giving growth above the 0 μM background; 37° C.; read-out: ypt1-ts MRC (minimal rescue concentration)
From the text: The activity of the compounds as modulators of protein trafficking may be measured in the assays described herein that evaluate the ability of a compound to rescue an impairment in protein trafficking. For example, the yeast mutant cell line ypt1^ts can be used to identify compounds that rescue cells from the lethal phenotype of a mutant YPT1 allele (see, e.g., Examples and Schmitt et al. (1988) Cell 53:635-47). The activity may be measured, for example, in a whole yeast cell assay using 384-well screening protocol and an optical density measurement.
The yeast mutant cell line ypt1^ts suppresses, in a temperature dependent fashion, the dominant-lethal phenotype of a mutant YPT1 allele (Schmitt et al. (1988) Cell 53:635-47). ypt1^ts cells grow normally at temperatures up to 30° C., but are growth arrested at 37° C. (Id.).
A library of compounds (“The Spectrum Collection”) obtained from Microsource Discovery Systems, Inc. (Gaylordsville, Conn.) was screened to assess the ability of individual compounds to restore growth of ypt1^ts cells. Screening was carried out using ypt1^ts cells containing a mutation in the pdr5 gene (resulting in inactivation of a membrane efflux pump). The effect of the compounds was measured in pdr5 ypt1^ts cells cultured at 37° C.

Row | Compound | minimal effective concentration [µM]
1 | CC1=CC(=O)[C@H]2C(C)(C)CCC[C@]2(C)[C@@]1(O)CCc1ccoc1 [SOLIDAGENONE] | 6.25
2 | O=C(/C=C/c1ccccc1)c1ccc(O)cc1 [4'- HYDROXYCHALCONE] | 12.5
3 | COc1c2occc2cc2c(=O)c3c(oc12)COc1cc2c(cc1-3)OCO2 [DEHYDRO- PACHYRRHIZONE] | 12.5
4 | CC(=O)O[C@]1(C(C)=O)CC[C@H]2[C@@H]3C=C(Cl)C4=CC(=O)CC[C@]4(C)[C@H]3CC[C@@]21C [CHLORMADINONE ACETATE, reference compound] | 12.5
5 | CC(=O)c1cc(CC=C(C)C)c(O)c(CC=C(C)C)c1 | 25
6 | CC1(C)CC2C1CCC1(CBr)CC[C@H]3C(CC(=O)O)C(=O)OC23C1 (stereo partly shown) [BROMO-3-HYDROXY- 4-(SUCCIN-2-YL)- CARYOLANE gamma- LACTONE] | 6.25

Same assay, conditions: Table 2; 0.39 μM compound; 37° C.; background (0 μM) 0.058

Row | Compound | optical density, ypt1-ts, 0.39
7 | NIMODIPINE [reference compound] | 0.097
8 | CC1=CC(=O)[C@H]2C(C)(C)CCC[C@]2(C)[C@@]1(O)CCc1ccoc1 [SOLIDAGENONE] | 0.092
9 | O=C(/C=C/c1ccccc1)c1ccc(O)cc1 [4'- HYDROXYCHALCONE] | 0.088
10 | COc1c2occc2cc2c(=O)c3c(oc12)COc1cc2c(cc1-3)OCO2 [DEHYDRO- PACHYRRHIZONE] | 0.1
11 | CC(=O)O[C@]1(C(C)=O)CC[C@H]2[C@@H]3C=C(Cl)C4=CC(=O)CC[C@]4(C)[C@H]3CC[C@@]21C [CHLORMADINONE ACETATE, reference compound] | 0.193
12 | CC(=O)c1cc(CC=C(C)C)c(O)c(CC=C(C)C)c1 | 0.085
13 | CC1(C)CC2C1CCC1(CBr)CC[C@H]3C(CC(=O)O)C(=O)OC23C1 (stereo partly shown) [BROMO-3-HYDROXY- 4-(SUCCIN-2-YL)- CARYOLANE gamma- LACTONE] | 0.091

Same assay, conditions: Table 2; 0.78 μM compound; 37° C.; background (0 μM) 0.058

Row | Compound | optical density, ypt1-ts, 0.78
14 | NIMODIPINE [reference compound] | 0.081
15 | CC1=CC(=O)[C@H]2C(C)(C)CCC[C@]2(C)[C@@]1(O)CCc1ccoc1 [SOLIDAGENONE] | 0.077
16 | O=C(/C=C/c1ccccc1)c1ccc(O)cc1 [4'- HYDROXYCHALCONE] | 0.073
17 | COc1c2occc2cc2c(=O)c3c(oc12)COc1cc2c(cc1-3)OCO2 [DEHYDRO- PACHYRRHIZONE] | 0.072
18 | CC(=O)O[C@]1(C(C)=O)CC[C@H]2[C@@H]3C=C(Cl)C4=CC(=O)CC[C@]4(C)[C@H]3CC[C@@]21C [CHLORMADINONE ACETATE, reference compound] | 0.078
19 | CC(=O)c1cc(CC=C(C)C)c(O)c(CC=C(C)C)c1 | 0.077
20 | CC1(C)CC2C1CCC1(CBr)CC[C@H]3C(CC(=O)O)C(=O)OC23C1 (stereo partly shown) [BROMO-3-HYDROXY- 4-(SUCCIN-2-YL)- CARYOLANE gamma- LACTONE] | 0.079

Same assay, conditions: Table 2; 1.56 μM compound; 37° C.; background (0 μM) 0.058

Row | Compound | optical density, ypt1-ts, 1.56
21 | NIMODIPINE [reference compound] | 0.096
22 | CC1=CC(=O)[C@H]2C(C)(C)CCC[C@]2(C)[C@@]1(O)CCc1ccoc1 [SOLIDAGENONE] | 0.086
23 | O=C(/C=C/c1ccccc1)c1ccc(O)cc1 [4'- HYDROXYCHALCONE] | 0.079
24 | COc1c2occc2cc2c(=O)c3c(oc12)COc1cc2c(cc1-3)OCO2 [DEHYDRO- PACHYRRHIZONE] | 0.088
25 | CC(=O)O[C@]1(C(C)=O)CC[C@H]2[C@@H]3C=C(Cl)C4=CC(=O)CC[C@]4(C)[C@H]3CC[C@@]21C [CHLORMADINONE ACETATE, reference compound] | 0.088
26 | CC(=O)c1cc(CC=C(C)C)c(O)c(CC=C(C)C)c1 | 0.082
27 | CC1(C)CC2C1CCC1(CBr)CC[C@H]3C(CC(=O)O)C(=O)OC23C1 (stereo partly shown) [BROMO-3-HYDROXY- 4-(SUCCIN-2-YL)- CARYOLANE gamma- LACTONE] | 0.091

Same assay, conditions: Table 2; 3.13 μM compound; 37° C.; background (0 μM) 0.058

Row | Compound | optical density, ypt1-ts, 3.13
28 | NIMODIPINE [reference compound] | 0.113
29 | CC1=CC(=O)[C@H]2C(C)(C)CCC[C@]2(C)[C@@]1(O)CCc1ccoc1 [SOLIDAGENONE] | 0.11
30 | O=C(/C=C/c1ccccc1)c1ccc(O)cc1 [4'- HYDROXYCHALCONE] | 0.093
31 | COc1c2occc2cc2c(=O)c3c(oc12)COc1cc2c(cc1-3)OCO2 [DEHYDRO- PACHYRRHIZONE] | 0.11
32 | CC(=O)O[C@]1(C(C)=O)CC[C@H]2[C@@H]3C=C(Cl)C4=CC(=O)CC[C@]4(C)[C@H]3CC[C@@]21C [CHLORMADINONE ACETATE, reference compound] | 0.112
33 | CC(=O)c1cc(CC=C(C)C)c(O)c(CC=C(C)C)c1 | 0.108
34 | CC1(C)CC2C1CCC1(CBr)CC[C@H]3C(CC(=O)O)C(=O)OC23C1 (stereo partly shown) [BROMO-3-HYDROXY- 4-(SUCCIN-2-YL)- CARYOLANE gamma- LACTONE] | 0.101

Same assay, conditions: Table 2; 6.25 μM compound; 37° C.; background (0 μM) 0.058

Row | Compound | optical density, ypt1-ts, 6.25
35 | CC1=CC(=O)[C@H]2C(C)(C)CCC[C@]2(C)[C@@]1(O)CCc1ccoc1 [SOLIDAGENONE] | 0.141
36 | O=C(/C=C/c1ccccc1)c1ccc(O)cc1 [4'- HYDROXYCHALCONE] | 0.1
37 | COc1c2occc2cc2c(=O)c3c(oc12)COc1cc2c(cc1-3)OCO2 [DEHYDRO- PACHYRRHIZONE] | 0.124
38 | CC(=O)O[C@]1(C(C)=O)CC[C@H]2[C@@H]3C=C(Cl)C4=CC(=O)CC[C@]4(C)[C@H]3CC[C@@]21C [CHLORMADINONE ACETATE, reference compound] | 0.11
39 | CC(=O)c1cc(CC=C(C)C)c(O)c(CC=C(C)C)c1 | 0.096
40 | CC1(C)CC2C1CCC1(CBr)CC[C@H]3C(CC(=O)O)C(=O)OC23C1 (stereo partly shown) [BROMO-3-HYDROXY- 4-(SUCCIN-2-YL)- CARYOLANE gamma- LACTONE] | 0.139

Same assay, conditions: Table 2; 12.5 μM compound; 37° C.; background (0 μM) 0.058

Row | Compound | optical density, ypt1-ts, 12.5
41 | NIMODIPINE [reference compound] | 0.178
42 | CC1=CC(=O)[C@H]2C(C)(C)CCC[C@]2(C)[C@@]1(O)CCc1ccoc1 [SOLIDAGENONE] | 0.439
43 | O=C(/C=C/c1ccccc1)c1ccc(O)cc1 [4'- HYDROXYCHALCONE] | 0.329
44 | COc1c2occc2cc2c(=O)c3c(oc12)COc1cc2c(cc1-3)OCO2 [DEHYDRO- PACHYRRHIZONE] | 0.149
45 | CC(=O)O[C@]1(C(C)=O)CC[C@H]2[C@@H]3C=C(Cl)C4=CC(=O)CC[C@]4(C)[C@H]3CC[C@@]21C [CHLORMADINONE ACETATE, reference compound] | 0.2
46 | CC(=O)c1cc(CC=C(C)C)c(O)c(CC=C(C)C)c1 | 0.112
47 | CC1(C)CC2C1CCC1(CBr)CC[C@H]3C(CC(=O)O)C(=O)OC23C1 (stereo partly shown) [BROMO-3-HYDROXY- 4-(SUCCIN-2-YL)- CARYOLANE gamma- LACTONE] | 0.245

Same assay, conditions: Table 2; 25 μM compound; 37° C.; background (0 μM) 0.058

Row | Compound | optical density, ypt1-ts, 25
48 | NIMODIPINE [reference compound] | 0.27
49 | CC1=CC(=O)[C@H]2C(C)(C)CCC[C@]2(C)[C@@]1(O)CCc1ccoc1 [SOLIDAGENONE] | 0.62
50 | O=C(/C=C/c1ccccc1)c1ccc(O)cc1 [4'- HYDROXYCHALCONE] | 0.552
51 | COc1c2occc2cc2c(=O)c3c(oc12)COc1cc2c(cc1-3)OCO2 [DEHYDRO- PACHYRRHIZONE] | 0.211
52 | CC(=O)O[C@]1(C(C)=O)CC[C@H]2[C@@H]3C=C(Cl)C4=CC(=O)CC[C@]4(C)[C@H]3CC[C@@]21C [CHLORMADINONE ACETATE, reference compound] | 0.296
53 | CC(=O)c1cc(CC=C(C)C)c(O)c(CC=C(C)C)c1 | 0.195
54 | CC1(C)CC2C1CCC1(CBr)CC[C@H]3C(CC(=O)O)C(=O)OC23C1 (stereo partly shown) [BROMO-3-HYDROXY- 4-(SUCCIN-2-YL)- CARYOLANE gamma- LACTONE] | 0.417

Same assay, conditions: Table 2; lowest concentration tested giving growth above the 0 μM background; 37° C.; read-out: ypt1-ts MRC (minimal rescue concentration)

Row | Compound | minimal effective concentration [µM]
55 | NIMODIPINE [reference compound] | 12.5

Same assay, conditions: Table 3; 3.13 uM compound; 37° C.; background (0 uM) 0.077

Row | Compound | optical density, 3.13 uM
56 | CC1=C2C(=CO[C@H](C)[C@H]2C)C(=O)C(C(=O)O)=C1O [CITRININ] | 0.102

Same assay, conditions: Table 3; 12.5 uM compound; 37° C.; background (0 uM) 0.077

Row | Compound | optical density, 12.5 uM
57 | CC1=C2C(=CO[C@H](C)[C@H]2C)C(=O)C(C(=O)O)=C1O [CITRININ] | 0.158

Same assay, conditions: Table 3; 50 uM compound; 37° C.; background (0 uM) 0.077

Row | Compound | optical density, 50 uM
58 | CC1=C2C(=CO[C@H](C)[C@H]2C)C(=O)C(C(=O)O)=C1O [CITRININ] | 0.38
